Where two headings read alike, the source gives them in different places.
Assays:
[1] = for amount of "other unknown contaminants": change after 3 weeks of storage; for Known contaminant 2: RT 1.97 min; for water absorption: under various storage conditions, compared to the isethionate salt
[2] = WO 2005/005426, in words; cited from earlier work
[3] = low relative humidity (10% RH); cited from earlier work
[4] = Dynamic vapour sorption analysis (DVS): water sorption isotherms, hygroscopicity; type: physicochemical; conditions: 25 °C
[5] = RT 1.70 min, 3 weeks, 25 °C 90% RH
[6] = RT 1.70 min, 3 weeks, 40 °C 70% RH
[7] = RT 2.56 min, 3 weeks, 25 °C 90% RH
[8] = RT 2.56 min, 3 weeks, 40 °C 70% RH

Molecule: CC(=O)c1c(C)c2cnc(Nc3ccc(N4CCNCC4)cn3)nc2n(C2CCCC2)c1=O [palbociclib base Form A, 6-acetyl-8-cyclopentyl-5-methyl-2-{[5-(1-piperazinyl)-2-piridinyl]amino}pyrido[2,3-d]pyrimidin-7(8H)-one]
- Known contaminant 1 (RT 1.85 min) ([1]; 3 weeks, 25 °C 90% RH): 0.03%
- Known contaminant 2 (RT 1.97 min) ([1]; 3 weeks, 25 °C 90% RH): 0.04%
- Total contamination ([1]; 3 weeks, 25 °C 90% RH): 0.23%
- Total unknown contaminant ([1]; 3 weeks, 25 °C 90% RH): 0.16%
- Unknown contaminant (RT 1.70 min) ([1]; 3 weeks, 25 °C 90% RH): 0.04%
- Unknown contaminant (RT 2.56 min) ([1]; 3 weeks, 25 °C 90% RH): 0.07%
- Unknown contaminant (RT 3.04 min) ([1]; 3 weeks, 25 °C 90% RH): 0.05%
- Water content ([1]; 3 weeks, 25 °C 90% RH): 0.42% m/m%
- Known contaminant 2 (RT 1.97 min) ([1]; 3 weeks, 40 °C 70% RH): 0.05%
- Total contamination ([1]; 3 weeks, 40 °C 70% RH): 0.17%
- Total unknown contaminant ([1]; 3 weeks, 40 °C 70% RH): 0.13%
- Unknown contaminant (RT 1.70 min) ([1]; 3 weeks, 40 °C 70% RH): 0.05%
- Unknown contaminant (RT 2.56 min) ([1]; 3 weeks, 40 °C 70% RH): 0.04%
- Unknown contaminant (RT 3.04 min) ([1]; 3 weeks, 40 °C 70% RH): 0.04%
- Water content ([1]; 3 weeks, 40 °C 70% RH): 0.41% m/m%
- Known contaminant 1 (RT 1.85 min) ([1]; 3 weeks, 70 °C): 0.03%
- Known contaminant 2 (RT 1.97 min) ([1]; 3 weeks, 70 °C): 0.05%
- Total contamination ([1]; 3 weeks, 70 °C): 0.23%
- Total unknown contaminant ([1]; 3 weeks, 70 °C): 0.15%
- Unknown contaminant (RT 1.70 min) ([1]; 3 weeks, 70 °C): 0.04%
- Unknown contaminant (RT 2.56 min) ([1]; 3 weeks, 70 °C): 0.06%
- Unknown contaminant (RT 3.04 min) ([1]; 3 weeks, 70 °C): 0.05%
- Water content ([1]; 3 weeks, 70 °C): 0.39% m/m%
- Known contaminant 2 (RT 1.97 min) ([1]; Starting sample): 0.04%
- Total contamination ([1]; Starting sample): 0.13%
- Total unknown contaminant ([1]; Starting sample): 0.09%
- Unknown contaminant (RT 1.70 min) ([1]; Starting sample): 0.04%
- Unknown contaminant (RT 2.56 min) ([1]; Starting sample): 0.05%
- Water content ([1]; Starting sample): 0.23% m/m%
- amount of "other unknown contaminants" ([1]; in words): significantly increases

Molecule: CC(=O)c1c(C)c2cnc(Nc3ccc(N4CCNCC4)cn3)nc2n(C2CCCC2)c1=O.Cl.Cl [palbociclib di-HCI salt]
- water solubility [2]: suitable water solubility
- amount of water absorbed [3]: > 2 m/m %

Molecule: CC(=O)c1c(C)c2cnc(Nc3ccc(N4CCNCC4)cn3)nc2n(C2CCCC2)c1=O.O=S(=O)(O)CCO [palbociclib isethionate Form B]
- Known contaminant 2 (RT 1.97 min) ([1]; 3 weeks, 25 °C 90% RH): 0.09%
- Total contamination ([1]; 3 weeks, 25 °C 90% RH): 0.28%
- Total unknown contaminant ([1]; 3 weeks, 25 °C 90% RH): 0.19%
- Unknown contaminant (RT 1.70 min) ([1]; 3 weeks, 25 °C 90% RH): 0.03%
- Unknown contaminant (RT 2.56 min) ([1]; 3 weeks, 25 °C 90% RH): 0.16%
- Water content ([1]; 3 weeks, 25 °C 90% RH): 0.97% m/m%
- Known contaminant 2 (RT 1.97 min) ([1]; 3 weeks, 40 °C 70% RH): 0.10%
- Total contamination ([1]; 3 weeks, 40 °C 70% RH): 0.27%
- Total unknown contaminant ([1]; 3 weeks, 40 °C 70% RH): 0.17%
- Unknown contaminant (RT 1.70 min) ([1]; 3 weeks, 40 °C 70% RH): 0.03%
- Unknown contaminant (RT 2.56 min) ([1]; 3 weeks, 40 °C 70% RH): 0.14%
- Water content ([1]; 3 weeks, 40 °C 70% RH): 0.76% m/m%
- Known contaminant 2 (RT 1.97 min) ([1]; 3 weeks, 70 °C): 0.09%
- Total contamination ([1]; 3 weeks, 70 °C): 0.28%
- Total unknown contaminant ([1]; 3 weeks, 70 °C): 0.19%
- Unknown contaminant (RT 1.70 min) ([1]; 3 weeks, 70 °C): 0.03%
- Unknown contaminant (RT 2.56 min) ([1]; 3 weeks, 70 °C): 0.16%
- Water content ([1]; 3 weeks, 70 °C): 0.83% m/m%
- Known contaminant 2 (RT 1.97 min) ([1]; Starting sample): 0.09%
- Total contamination ([1]; Starting sample): 0.29%
- Total unknown contaminant ([1]; Starting sample): 0.20%
- Unknown contaminant (RT 1.36 min) ([1]; Starting sample): 0.03%
- Unknown contaminant (RT 1.70 min) ([1]; Starting sample): 0.03%
- Unknown contaminant (RT 2.56 min) ([1]; Starting sample): 0.14%
- Water content ([1]; Starting sample): 0.36% m/m%

Molecule: palbociclib camsylate salt (1:1) [palbociclib camsylate (1:1) salt]
- hygroscopicity (water sorption isotherms) [4]: does not exhibit significant hygroscopicity

Molecule: palbociclib citrate (1:1) monohydrate salt
- hygroscopicity (water sorption isotherms) [4]: exhibits significant hygroscopicity

Molecule: palbociclib hydrogen chloride (1:1) salt Form E
- hygroscopicity (water sorption isotherms) [4]: does not exhibit significant hygroscopicity
- stability ([1]; 3 weeks of storage under various forced conditions, compared to palbociclib base Form A and isethionate salt Form B, in words): more stable than the Form A base
- Total contamination ([1]; 3 weeks, 25 °C 90% RH): 0.22%
- Total unknown contaminant ([1]; 3 weeks, 25 °C 90% RH): 0.16%
- Water content ([1]; 3 weeks, 25 °C 90% RH): 0.45% m/m%
- Total contamination ([1]; 3 weeks, 40 °C 70% RH): 0.19%
- Total unknown contaminant ([1]; 3 weeks, 40 °C 70% RH): 0.13%
- Water content ([1]; 3 weeks, 40 °C 70% RH): 0.41% m/m%
- Total contamination ([1]; 3 weeks, 70 °C): 0.23%
- Total unknown contaminant ([1]; 3 weeks, 70 °C): 0.17%
- Water content ([1]; 3 weeks, 70 °C): 0.42% m/m%
- Unknown contaminant [1, 5]: 0.06%
- Unknown contaminant [1, 6]: 0.06%
- Unknown contaminant ([1]; RT 1.70 min, 3 weeks, 70 °C): 0.06%
- Unknown contaminant ([1]; RT 1.70 min, Starting sample): 0.05%
- Known contaminant 2 ([1]; 3 weeks, 25 °C 90% RH): 0.06%
- Known contaminant 2 ([1]; 3 weeks, 40 °C 70% RH): 0.06%
- Known contaminant 2 ([1]; 3 weeks, 70 °C): 0.06%
- Known contaminant 2 ([1]; Starting sample): 0.05%
- Unknown contaminant [1, 7]: 0.10%
- Unknown contaminant [1, 8]: 0.07%
- Unknown contaminant ([1]; RT 2.56 min, 3 weeks, 70 °C): 0.11%
- Unknown contaminant ([1]; RT 2.56 min, Starting sample): 0.10%
- Total contamination ([1]; Starting sample): 0.20%
- Total unknown contaminant ([1]; Starting sample): 0.15%
- Water content ([1]; Starting sample): 0.21% m/m%
- amount of "other unknown contaminants" ([1]; in words): remains unchanged
- water absorption ([1]; in words): significantly less water absorption

Molecule: palbociclib maleate (Form I) (1:1) salt
- hygroscopicity (water sorption isotherms) [4]: does not exhibit significant hygroscopicity

Molecule: palbociclib maleate (Form II) (1:1) salt
- hygroscopicity (water sorption isotherms) [4]: does not exhibit significant hygroscopicity

Molecule: palbociclib napsylate (1:1) salt
- hygroscopicity (water sorption isotherms) [4]: does not exhibit significant hygroscopicity

Molecule: palbociclib napsylate (1:2) dihydrate salt
- hygroscopicity (water sorption isotherms) [4]: exhibits significant hygroscopicity

Molecule: palbociclib oxalate (1:1) salt
- hygroscopicity (water sorption isotherms) [4]: does not exhibit significant hygroscopicity

Molecule: palbociclib sulphate (C24H29N7O2 . ½ H2SO4 . 2 H2O) dihydrate salt
- hygroscopicity (water sorption isotherms) [4]: exhibits significant hygroscopicity

Molecule: palbociclib tosylate (1:1) salt
- hygroscopicity (water sorption isotherms) ([4]; listed as palbociclib 4-toluenesulfonic acid (1:1) salt): does not exhibit significant hygroscopicity
- hygroscopicity (water sorption isotherms) ([4]; listed as palbociclib tosylate salt form): surprisingly low hygroscopicity
- Total contamination ([1]; 3 weeks, 25 °C 90% RH): 0.09%
- Total unknown contaminant ([1]; 3 weeks, 25 °C 90% RH): 0.09%
- Water content ([1]; 3 weeks, 25 °C 90% RH): 0.51% m/m%
- Total contamination ([1]; 3 weeks, 40 °C 70% RH): 0.09%
- Total unknown contaminant ([1]; 3 weeks, 40 °C 70% RH): 0.09%
- Water content ([1]; 3 weeks, 40 °C 70% RH): 0.49% m/m%
- Total contamination ([1]; 3 weeks, 70 °C): 0.10%
- Total unknown contaminant ([1]; 3 weeks, 70 °C): 0.10%
- Water content ([1]; 3 weeks, 70 °C): 0.49% m/m%
- Unknown contaminant [1, 5]: 0.04%
- Unknown contaminant [1, 6]: 0.05%
- Unknown contaminant ([1]; RT 1.70 min, 3 weeks, 70 °C): 0.05%
- Unknown contaminant ([1]; RT 1.70 min, Starting sample): 0.04%
- Unknown contaminant [1, 7]: 0.05%
- Unknown contaminant [1, 8]: 0.04%
- Unknown contaminant ([1]; RT 2.56 min, 3 weeks, 70 °C): 0.05%
- Unknown contaminant ([1]; RT 2.56 min, Starting sample): 0.04%
- Total contamination ([1]; Starting sample): 0.08%
- Total unknown contaminant ([1]; Starting sample): 0.08%
- Water content ([1]; Starting sample): 0.34% m/m%
- amount of "other unknown contaminants" ([1]; in words): remains unchanged
- water absorption ([1]; in words): significantly less water absorption
- solubility (0.1 M HCl (pH=1), 37 °C, 1440 min): 20000 µg/mL
- solubility (pH 4.5 (slightly acidic), 37 °C, compared to reference palbociclib base Form A, in words): significantly better
- solubility (pH 4.5 (slightly acidic), 37 °C, compared to reference palbociclib base Form A, in words, listed as palbociclib tosylate salt form): significantly better solubility
- solubility (pH=1, 37 °C, compared to reference palbociclib base Form A, in words): comparable
- solubility (pH=4.5 phosphate buffer, 37 °C, 1440 min): 200 µg/mL
- solubility (pH=6.8 phosphate buffer, 37 °C, 1440 min): <30 µg/mL

— patent EP3368527B1, “PALBOCICLIB TOSYLATE” (Egis Gyógyszergyár Zrt., priority 2015, dated 2017)
